Assay [1] addresses T1, purified human platelet fibrinogen receptor (GPIIb/IIIa) (Homo sapiens, UniProt P05106+P08514).
T1 construct: Glycoprotein IIb/IIIa is isolated from human platelet lysates; from tissue
Kind of assay: test (b): GPIIb/IIIa ELISA, inhibition of biotinylated fibrinogen binding. To be noted: biotinylated fibrinogen 10 nM, read-out: pIC50 (-log(IC50)), inhibition of biotinylated fibrinogen binding in test (b) (converted). How it is done:
(i) Preparation of human platelet lysates. Platelet rich plasma (PRP) is harvested by centrifugation (1000 rpm, 15 minutes) of whole blood anticoagulated with acid citrate dextrose (trisodium citrate 85 mM, citric acid 70 mM, d-glucose 110 mM) 1 part to 6 parts blood. Prostacyclin (PGI2, 1 μM) is added to the PRP before centrifugation (2400 rpm, 15 mins) and the resulting pellet is resuspended in modified Tyrodes' solution (NACl 130 mM, […], NaHCO3 12 mM, NaH2 PO4 0.5 mM, MgCl2 1 mM, […], Glucose 12 mM, HEPES 5 mM) containing bovine serum albumin 3.5 g/L, PGI2 1 μM and hirudin 0.5 U/ml. The platelet suspension is centrifuged (2400 rpm, 15 minutes) and the resultant pellet resuspended in 500 μl of lysis buffer (octyl glucoside 50 mM, HEPES 10 mM, NaCl 150 mM, CaCl2 1 mM, MgCl2 1 mM, PMSF 1 mM, NEM 10 mM, leupeptin 0.1 mM), agitated at 4° C. for 15 minutes then centrifuged at 24000 rpm, 15 minutes. The supernatant is stored at 4° C. and the pellet re-suspended in 500 μl of lysis buffer. […]
(iii) GPIIb/IIIa ELISA 96 well microtitre plates are coated with 100 μl purified human platelet fibrinogen receptor (GPIIb/IIIa) diluted in coating buffer (Tris-HCl 20 mM, NaCl 150 mM, CaCl2 1 mM, pH7.4) and left overnight at 4° C. […] Colour is allowed to develop for 10-15 minutes before optical densities are read at 650 nm. […]

Assay [2] deals with ADP stimulated platelet aggregation in human, citrated, platelet-rich plasma. Nature of the assay: test (a): inhibition of ADP-induced aggregation of human platelet-rich plasma (Born). The assay is classed as cell-based. Conditions: ADP as agonist. The text has this: (i) aggregating human, citrated, platelet-rich plasma by addition of adenosine diphosphate (ADP) so as to generate a dose-response curve;
(ii) generating a dose-response curve for ADP stimulated platelet aggregation in the presence of increasing amounts of a test compound (generally in the range 10^-5 M to 10^-10 M); and
(iii) calculating a pA2 value indicating potency of platelet aggregation inhibition for the test compound, averaged over several concentrations, from the calculated 50% response value for ADP aggregation in the presence and absence of the test compound.

Assay [3] deals with aggregation of human blood platelets. Kind of assay: test (a) modified, ex vivo after oral dosing to dogs. It counts as in vivo. Conditions: 1 mg/kg. How it is done: Test (a) may be modified so as to assess the effects of a test compound ex vivo on the aggregation of human blood platelets after administration of the test compound to a laboratory animal, such as a rat, rabbit, guinea pig, mouse or dog. For example, groups of four male, fasted Alderley Park Wistar rats are orally dosed with a test compound or appropriate vehicle, and at suitable time intervals (1, 3, 5 and 8 hours after dosing) animals are anaesthetised with fluothane and bled by heart puncture. Blood is collected into 3.2% citrate (1 part to 9 parts whole blood) and platelet poor plasma (ppp) prepared by centrifugation (4500×g for 10 minutes). […]
Equal volumes (125 μl) of rat ppp and human prp are mixed together, ADP added, and the whole incubated (37° C.) and stirred (900 rpm) in a BioData platelet aggregometer. Aggregation is induced with ADP and agonist EC50 values calculated for human prp/rat ppp mixtures from animals dosed with test compound or vehicle. A mean concentration ratio (concentration of ADP required to cause a 50% aggregation response in human prp/rat ppp mixtures from animals dosed with antagonist, divided by the concentration of ADP to cause 50% aggregation in human prp/rat ppp mixtures from animals dosed with vehicle) is calculated at each time point.

T1 sequence (P08514 32-887 limits assumed): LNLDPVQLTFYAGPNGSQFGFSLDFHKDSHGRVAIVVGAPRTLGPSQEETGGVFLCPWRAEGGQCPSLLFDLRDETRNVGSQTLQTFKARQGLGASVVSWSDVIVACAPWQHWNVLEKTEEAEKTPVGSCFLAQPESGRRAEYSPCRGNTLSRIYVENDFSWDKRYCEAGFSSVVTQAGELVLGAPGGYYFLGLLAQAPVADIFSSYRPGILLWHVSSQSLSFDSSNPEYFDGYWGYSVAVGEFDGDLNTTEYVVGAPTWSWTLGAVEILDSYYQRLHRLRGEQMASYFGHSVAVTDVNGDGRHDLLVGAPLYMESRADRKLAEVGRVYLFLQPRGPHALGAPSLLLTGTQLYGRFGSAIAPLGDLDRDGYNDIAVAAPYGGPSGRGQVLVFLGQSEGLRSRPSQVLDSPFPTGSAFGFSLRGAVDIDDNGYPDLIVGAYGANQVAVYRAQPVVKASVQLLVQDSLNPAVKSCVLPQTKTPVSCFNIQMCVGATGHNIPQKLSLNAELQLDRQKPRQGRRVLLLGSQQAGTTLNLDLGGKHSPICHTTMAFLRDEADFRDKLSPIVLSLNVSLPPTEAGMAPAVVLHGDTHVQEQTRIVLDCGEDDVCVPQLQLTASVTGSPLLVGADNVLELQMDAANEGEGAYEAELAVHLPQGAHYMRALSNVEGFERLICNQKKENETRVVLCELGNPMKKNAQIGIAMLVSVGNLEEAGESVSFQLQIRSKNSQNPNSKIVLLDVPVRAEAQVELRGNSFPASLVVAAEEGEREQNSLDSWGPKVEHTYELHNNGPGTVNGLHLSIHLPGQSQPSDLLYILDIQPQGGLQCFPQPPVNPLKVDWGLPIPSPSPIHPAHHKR
T1 sequence (P08514 891-1039 limits assumed): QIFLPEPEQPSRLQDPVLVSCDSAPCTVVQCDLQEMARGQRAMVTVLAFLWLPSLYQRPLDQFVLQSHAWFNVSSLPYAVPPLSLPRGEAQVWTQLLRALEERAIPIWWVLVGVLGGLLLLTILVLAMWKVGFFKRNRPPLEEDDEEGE
T1 sequence (P05106 27-788): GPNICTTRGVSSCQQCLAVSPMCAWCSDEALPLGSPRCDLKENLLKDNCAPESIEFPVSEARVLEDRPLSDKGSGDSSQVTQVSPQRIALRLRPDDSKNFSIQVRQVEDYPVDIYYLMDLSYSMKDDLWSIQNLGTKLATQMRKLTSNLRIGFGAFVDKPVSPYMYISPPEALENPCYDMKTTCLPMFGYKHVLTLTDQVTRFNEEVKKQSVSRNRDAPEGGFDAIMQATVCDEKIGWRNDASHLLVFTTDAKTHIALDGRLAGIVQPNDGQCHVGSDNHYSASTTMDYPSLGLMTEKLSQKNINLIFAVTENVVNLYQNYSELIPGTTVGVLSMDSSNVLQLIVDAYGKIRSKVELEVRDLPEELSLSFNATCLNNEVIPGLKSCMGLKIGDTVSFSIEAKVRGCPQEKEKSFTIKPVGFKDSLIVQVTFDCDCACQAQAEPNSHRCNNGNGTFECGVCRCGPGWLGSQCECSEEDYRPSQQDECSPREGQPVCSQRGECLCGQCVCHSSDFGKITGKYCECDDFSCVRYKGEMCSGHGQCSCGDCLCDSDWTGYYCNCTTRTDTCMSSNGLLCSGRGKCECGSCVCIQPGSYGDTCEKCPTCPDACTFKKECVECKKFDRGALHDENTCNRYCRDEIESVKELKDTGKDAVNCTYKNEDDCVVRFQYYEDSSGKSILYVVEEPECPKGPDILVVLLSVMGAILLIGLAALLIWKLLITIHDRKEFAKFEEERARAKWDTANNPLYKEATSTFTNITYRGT

Take `N=C(N)c1ccc(C(=O)NC(=O)Nc2ccc(OCC(=O)O)cc2)cc1` [Example 3, 4-[3-(4-Amidinobenzoyl)ureido]phenoxyacetic acid]: the IC50 in assay [1] was 0.00251 µM. The “pA2, potency of platelet aggregation inhibition in test (a)” value in assay [2] was found to be 8.4.

Consider `CC(C)(C)OC(=O)COc1ccc(NC(=O)NC(=O)c2ccc(C(=N)N)cc2)cc1` [Example 2, t-Butyl 4-[3-(4-amidinobenzoyl)ureido]phenoxyacetate], for which, in assay [3], the “duration of activity when dosed orally” value is “up to 8 hours”. With `COC(=O)COc1ccc(NC(=O)NC(=O)c2ccc(C(=N)N)cc2)cc1` [Example 1, Methyl 4-[3-(4-amidinobenzoyl)ureido]phenoxyacetate], the IC50 in assay [1] is 0.316 µM. Also, the “pA2, potency of platelet aggregation inhibition in test (a)” value in assay [2] was found to be 7.6.
